In patent US9695155B2, “Herbicidal substituted pyrimidinyloxy benzene compounds” (E. I. DU PONT DE NEMOURS AND COMPANY, priority 2013, dated 2017):

Legend:
Italian ryegrass = assay: Test C preemergence; type: in vivo, Lolium multiflorum; details: for Ryegrass, Italian plant response rating: preemergence; for Plant response rating, Ryegrass, Italian: Preemergence, 31 g ai/ha, scale 0 to 100, 0 no effect, 100 complete control
Outline: (§1)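 Seeds are planted in blended loam soil and sand and treated preemergence, while seedlings in a peat moss/vermiculite medium receive postemergence sprays at 2 to 18 cm height. All plants stay in the greenhouse for 13 to 15 days before visual comparison with controls on a 0–100 scale.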

Heteranthera limosa = assay: Test B flooded paddy test; type: in vivo; details: Flood, 250 g ai/ha; 0 to 100 scale where 0 is no effect and 100 is complete control
Outline: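 Seedlings are raised to two leaves, flooded to a depth of 3 cm and dosed by adding the compound to the floodwater. Water level is kept constant, and plants are scored visually versus controls 13–15 days later (0 = no effect, 100 = complete control).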

corn = assay: Test C postemergence; type: in vivo, Zea mays; details: for Plant response rating (0 to 100), Corn: postemergence; for Plant response rating, Corn: Postemergence, scale 0 to 100 (0 no effect, 100 complete control)
Outline: as §1

galium = assay: Test C preemergence; type: in vivo, Galium aparine; details: for Galium plant response rating: preemergence; for Plant response rating, Galium: Preemergence, 31 g ai/ha, scale 0 to 100, 0 no effect, 100 complete control
Outline: as §1

morningglory = assay: Test C preemergence; type: in vivo, Ipomoea coccinea; details: for Morningglory plant response rating: preemergence; for Plant response rating, Morningglory: Preemergence, 31 g ai/ha, scale 0 to 100, 0 no effect, 100 complete control
Outline: as §1

velvetleaf [1] = assay: Test C preemergence; type: in vivo, Abutilon theophrasti; details: for Velvetleaf plant response rating: preemergence; for Plant response rating, Velvetleaf: Preemergence, 31 g ai/ha, scale 0 to 100, 0 no effect, 100 complete control
Outline: as §1

pigweed = assay: Test A postemergence; type: in vivo, Amaranthus retroflexus
Outline: (§2)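 Greenhouse pot test, loam/sand soil. Formulation: non-phytotoxic solvent mix plus surfactant. Pre: directed spray onto soil after sowing. Post: plants at 1–2 leaf, 2–10 cm. Rated visually vs untreated controls at ~10 d, 0 (no effect) to 100 (complete control).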

velvetleaf [2] = assay: Test A preemergence; type: in vivo, Abutilon theophrasti
Outline: as §2

giant foxtail = assay: Test A preemergence; type: in vivo, Setaria faberii
Outline: as §2

wheat, winter = assay: Test C postemergence; type: in vivo, Triticum aestivum; details: for Plant response rating (0 to 100), Wheat: postemergence; for Plant response rating, Wheat: Postemergence, scale 0 to 100 (0 no effect, 100 complete control)
Outline: as §1

johnsongrass = assay: Test C preemergence; type: in vivo, Sorghum halepense; details: for Johnsongrass plant response rating: preemergence; for Plant response rating, Johnsongrass: Preemergence, 31 g ai/ha, scale 0 to 100, 0 no effect, 100 complete control
Outline: as §1

chickweed = assay: Test C postemergence; type: in vivo, Stellaria media; details: for Plant response rating (0 to 100), Chickweed: postemergence; for Plant response rating, Chickweed: Postemergence, scale 0 to 100 (0 no effect, 100 complete control)
Outline: as §1

large (Lg) crabgrass [3] = assay: Test A preemergence; type: in vivo, Digitaria sanguinalis
Outline: as §2

large (Lg) crabgrass [4] = assay: Test C postemergence; type: in vivo, Digitaria sanguinalis; details: for Plant response rating (0 to 100), Crabgrass, Large: postemergence; for Plant response rating, Crabgrass, Large: Postemergence, scale 0 to 100 (0 no effect, 100 complete control)
Outline: as §1

oilseed rape = assay: Test C preemergence; type: in vivo, Brassica napus; details: for Oilseed Rape plant response rating: preemergence
Source text: Seeds of plant species selected from blackgrass (Alopecurus myosuroides), Italian ryegrass (Lolium multiflorum), wheat, winter (winter wheat, Triticum aestivum), galium (catchweed bedstraw, Galium aparine), corn (Zea mays), large (Lg) crabgrass (Digitaria sanguinalis), giant foxtail (Setaria faberii), johnsongrass (Sorghum halepense), lambsquarters (Chenopodium album), morningglory (Ipomoea coccinea), yellow nutsedge (Cyperus esculentus), pigweed (Amaranthus retroflexus), ragweed (common ragweed, Ambrosia elatior), soybean (Glycine max), barnyardgrass (Echinochloa crus-galli), oilseed rape (Brassica napus), waterhemp (common waterhemp, Amaranthus rudis), kochia (Kochia scoparia), wild oat (Avena fatua), surinam grass (Brachiaria decumbens), foxtail, green (green foxtail, Setaria viridis), goosegrass (Eleusine indica), bromegrass, downy (downy bromegrass, Bromus tectorum), nightshade (eastern black nightshade, Solanum ptycanthum), cocklebur (common cocklebur, Xanthium strumarium), cupgrass, woolly (woolly cupgrass, Eriochloa villosa), bermudagrass (Cynodon dactylon), sunflower, (common oilseed sunflower, Helianthus annuus), Russian thistle (Salsola kali), and velvetleaf (Abutilon theophrasti) were planted into a blend of loam soil and sand and treated preemergence with test chemicals formulated in a non-phytotoxic solvent mixture which included a surfactant.
At the same time, plants selected from these crop and weed species and also barley, winter (winter barley, Hordeum vulgare), windgrass (Apera spica-venti), chickweed (common chickweed, Stellaria media), deadnettle (henbit deadnettle, Lamium amplexicaule), and canarygrass (littleseed canarygrass, Phalaris minor) were planted in pots containing Redi-Earth® planting medium (Scotts Company, 14111 Scottslawn Road, Marysville, Ohio 43041) comprising spaghnum peat moss, vermiculite, wetting agent and starter nutrients and treated with postemergence applications of test chemicals formulated in the same manner. Plants ranged in height from 2 to 18 cm (1- to 4-leaf stage) for postemergence treatments. Treated plants and controls were maintained in a greenhouse for 13 to 15 days, after which time all species were compared to controls and visually evaluated. Plant response ratings, summarized in Table C, are based on a scale of 0 to 100 where 0 is no effect and 100 is complete control. A dash (-) response means no test result.

[5] = 62 g ai/ha, scale 0 (no effect) to 100 (complete control)
[6] = 125 g ai/ha, scale 0 (no effect) to 100 (complete control)
[7] = 250 g ai/ha, scale 0 (no effect) to 100 (complete control)
[8] = 125 g ai/ha, 0 to 100 scale where 0 is no effect and 100 is complete control
[9] = 500 g ai/ha, 0 to 100 scale, 0 no effect, 100 complete control, approx. 10 days
[10] = 16 g ai/ha, scale 0 to 100 (0 no effect, 100 complete control)
[11] = 31 g ai/ha, 0 to 100 scale, 0 no effect, 100 complete control
[12] = 500 g ai/ha, 0 to 100 scale where 0 is no effect and 100 is complete control

FC(F)(F)c1cnn(-c2ccccc2Oc2ncc(Cl)cn2)c1 [Compound 16]
Ryegrass, Italian plant response rating (Italian ryegrass; [5]): 30
Ryegrass, Italian plant response rating (Italian ryegrass; [6]): 80
Ryegrass, Italian plant response rating (Italian ryegrass; [7]): 90
Plant response rating, Ryegrass, Italian (Italian ryegrass): 0
Plant response rating, Ducksalad (Heteranthera limosa): 90
Plant response rating (0 to 100), Corn (corn; 125 g ai/ha): 10
Plant response rating (0 to 100), Corn (corn; 250 g ai/ha): 20
Plant response rating, Corn (corn; 31 g ai/ha, 13 to 15 days): 5
Plant response rating, Corn (corn; 62 g ai/ha): 5
Galium plant response rating (galium; [5]): 100
Galium plant response rating (galium; [6]): 100
Galium plant response rating (galium; [7]): 100
Plant response rating, Galium (galium): 95
Morningglory plant response rating (morningglory; [5]): 75
Morningglory plant response rating (morningglory; [6]): 90
Morningglory plant response rating (morningglory; [7]): 98
Plant response rating, Morningglory (morningglory): 10
Velvetleaf plant response rating (velvetleaf [1]; [5]): 100
Velvetleaf plant response rating (velvetleaf [1]; [6]): 100
Velvetleaf plant response rating (velvetleaf [1]; [7]): 100
Plant response rating, Velvetleaf (velvetleaf [1]): 98
Plant response rating, Pigweed (pigweed; [8]): 100
Plant response rating, Pigweed (pigweed; 500 g ai/ha, 0 to 100 scale, 0 no effect, 100 complete control): 100
Velvetleaf plant response rating (velvetleaf [2]; [8]): 100
Velvetleaf plant response rating (velvetleaf [2]; [9]): 100
Foxtail, Giant plant response rating (giant foxtail; [8]): 100
Foxtail, Giant plant response rating (giant foxtail; [9]): 100
Plant response rating (0 to 100), Wheat (wheat, winter; 125 g ai/ha): 35
Plant response rating (0 to 100), Wheat (wheat, winter; 250 g ai/ha): 35
Plant response rating, Wheat (wheat, winter; 31 g ai/ha, 13 to 15 days): 5
Plant response rating, Wheat (wheat, winter; 62 g ai/ha): 15
Johnsongrass plant response rating (johnsongrass; [5]): 85
Johnsongrass plant response rating (johnsongrass; [6]): 100
Johnsongrass plant response rating (johnsongrass; [7]): 100
Plant response rating, Johnsongrass (johnsongrass): 0
Plant response rating (0 to 100), Chickweed (chickweed; 125 g ai/ha): 75
Plant response rating (0 to 100), Chickweed (chickweed; 250 g ai/ha): 90
Plant response rating, Chickweed (chickweed; 31 g ai/ha, 13 to 15 days): 40
Plant response rating, Chickweed (chickweed; 62 g ai/ha): 65
Crabgrass, Large plant response rating (large (Lg) crabgrass [3]; [8]): 100
Crabgrass, Large plant response rating (large (Lg) crabgrass [3]; [9]): 100
Plant response rating (0 to 100), Crabgrass, Large (large (Lg) crabgrass [4]; 125 g ai/ha): 30
Plant response rating (0 to 100), Crabgrass, Large (large (Lg) crabgrass [4]; 250 g ai/ha): 85
Plant response rating, Crabgrass, Large (large (Lg) crabgrass [4]; 31 g ai/ha, 13 to 15 days): 10
Plant response rating, Crabgrass, Large (large (Lg) crabgrass [4]; 62 g ai/ha): 20

FCc1cccc(Oc2ncc(F)cn2)c1-n1cc(C(F)(F)F)cn1 [Compound 118]
Ryegrass, Italian plant response rating (Italian ryegrass; [10]): 0
Ryegrass, Italian plant response rating (Italian ryegrass; [5]): 70
Ryegrass, Italian plant response rating (Italian ryegrass; [6]): 100
Plant response rating, Ryegrass, Italian (Italian ryegrass): 40
Plant response rating, Ducksalad (Heteranthera limosa): 90
Galium plant response rating (galium; [10]): 95
Galium plant response rating (galium; [5]): 100
Galium plant response rating (galium; [6]): 100
Plant response rating, Galium (galium): 95
Morningglory plant response rating (morningglory; [10]): 40
Morningglory plant response rating (morningglory; [5]): 100
Morningglory plant response rating (morningglory; [6]): 100
Plant response rating, Morningglory (morningglory): 75
Oilseed Rape plant response rating (oilseed rape; [10]): 98
Oilseed Rape plant response rating (oilseed rape; [5]): 100
Oilseed Rape plant response rating (oilseed rape; [6]): 100
Plant response rating, Oilseed Rape (oilseed rape; Preemergence, 31 g ai/ha, scale 0 to 100, 0 no effect, 100 complete control): 100
Velvetleaf plant response rating (velvetleaf [1]; [10]): 100
Velvetleaf plant response rating (velvetleaf [1]; [5]): 100
Velvetleaf plant response rating (velvetleaf [1]; [6]): 100
Plant response rating, Velvetleaf (velvetleaf [1]): 100
Plant response rating, Pigweed (pigweed; [11]): 70
Foxtail, Giant plant response rating (0 to 100 scale) (giant foxtail; 31 g ai/ha): 80
Plant response rating, Foxtail, Giant (giant foxtail; [8]): 100
Johnsongrass plant response rating (johnsongrass; [10]): 0
Johnsongrass plant response rating (johnsongrass; [5]): 85
Johnsongrass plant response rating (johnsongrass; [6]): 100
Plant response rating, Johnsongrass (johnsongrass): 25

COc1cnn(-c2c(C#N)cccc2Oc2ncc(Cl)cn2)c1 [Compound 137]
Ryegrass, Italian plant response rating (Italian ryegrass; [10]): 0
Ryegrass, Italian plant response rating (Italian ryegrass; [5]): 0
Ryegrass, Italian plant response rating (Italian ryegrass; [6]): 0
Plant response rating, Ducksalad (Heteranthera limosa): 30
Galium plant response rating (galium; [10]): 5
Galium plant response rating (galium; [5]): 10
Galium plant response rating (galium; [6]): 95
Plant response rating, Galium (galium): 5
Morningglory plant response rating (morningglory; [10]): 25
Morningglory plant response rating (morningglory; [5]): 45
Morningglory plant response rating (morningglory; [6]): 90
Oilseed Rape plant response rating (oilseed rape; [10]): 50
Oilseed Rape plant response rating (oilseed rape; [5]): 85
Oilseed Rape plant response rating (oilseed rape; [6]): 95
Velvetleaf plant response rating (velvetleaf [1]; [10]): 40
Velvetleaf plant response rating (velvetleaf [1]; [5]): 65
Velvetleaf plant response rating (velvetleaf [1]; [6]): 85
Pigweed plant response rating (pigweed; [8]): 70
Plant response rating, Pigweed (pigweed; [12]): 100
Plant response rating, Foxtail, Giant (giant foxtail; [8]): 90
Foxtail, Giant plant response rating (giant foxtail; [12]): 100
Johnsongrass plant response rating (johnsongrass; [10]): 0
Johnsongrass plant response rating (johnsongrass; [5]): 5
Johnsongrass plant response rating (johnsongrass; [6]): 45

N#Cc1cnn(-c2c(CF)cccc2Oc2ncc(F)cn2)c1 [Compound 151]
Ryegrass, Italian plant response rating (Italian ryegrass; [10]): 0
Ryegrass, Italian plant response rating (Italian ryegrass; [5]): 35
Ryegrass, Italian plant response rating (Italian ryegrass; [6]): 45
Plant response rating, Ducksalad (Heteranthera limosa): 70
Morningglory plant response rating (morningglory; [10]): 0
Morningglory plant response rating (morningglory; [5]): 10
Morningglory plant response rating (morningglory; [6]): 25
Oilseed Rape plant response rating (oilseed rape; [10]): 95
Oilseed Rape plant response rating (oilseed rape; [5]): 100
Oilseed Rape plant response rating (oilseed rape; [6]): 100
Velvetleaf plant response rating (velvetleaf [1]; [10]): 85
Velvetleaf plant response rating (velvetleaf [1]; [5]): 100
Velvetleaf plant response rating (velvetleaf [1]; [6]): 100
Plant response rating, Pigweed (pigweed; [11]): 20
Pigweed plant response rating (pigweed; [8]): 70
Plant response rating, Foxtail, Giant (giant foxtail; 31 g ai/ha, 0 to 100 scale where 0 is no effect and 100 is complete control, visual, approximately 10 days): 100
Plant response rating, Foxtail, Giant (giant foxtail; [8]): 100
Johnsongrass plant response rating (johnsongrass; [10]): 0
Johnsongrass plant response rating (johnsongrass; [5]): 50
Johnsongrass plant response rating (johnsongrass; [6]): 65
